Values joined by “and” are separate entries in the source; they are usually repeats but may differ in a detail not shown here. Equal entries are not always repeated.
How the values were obtained:
[1] = Penetration assay with finite dosage using vertical Franz diffusion cells; assay type: in vitro ADME, pig; conditions: 24 h; for % API detected in dermis (D) / % API detected in epidermis (E) / % API detected in receptor fluid (RF) / % API detected in stratum corneum (SC): finite dose 20 µL in propylene glycol, normalized amount, mean ± SD, n = 3; for % API total permeation (Perm): sum of epidermis, dermis and receptor fluid, finite dose 20 µL
Protocol: (§1) A porcine skin membrane was employed for both the permeation and penetration assays. […] The skin was provided by the Department of Cardiology of the Hospital Clinic (Barcelona, Spain). Dorsal unboiled skin (female white/landrace pigs) was prepared: the bristles were removed (A5 Clipper 78005-500, Oster professional, McMinnville, OR, USA) and dermatomed (Dermatome GA630, Aesculap, Tuttlingen, Germany) at 500 ± 50 μm thick. Thickness was verified with a digital micrometer 40EX (Mahr, Göttingen, Germany). Skin biopsies were cut into discs with 2.5 cm diameter. The skin discs were stored until the experiment (at −20 °C).
OECD guidelines and the published opinions of the Scientific Committee on Cosmetic Products and Non-Food Products (SCCS) were adhered in the penetration protocol. The excised pig skin was placed in a static Franz diffusion cell (Lara Spiral, Couternon, France) (1.86 cm^2 and 3 mL) with the dermis side facing the acceptor chamber. The receptor chamber was filled with receptor fluid. The receptor fluid was the same used in the kinetic assay (Section 2.4). Air bubbles entrapped below the skin were carefully removed and the assembled cells were deposited in a temperature-regulated water bath (Telesystem HP 15, H+P Labortechnik GmgH, Oberschleissheim, Germany) on top of a water-resistant magnetic stirring plate (Variomag 15 and Telemodul, H+P Labortechnik GmgH, Oberschleissheim, Germany). The homogeneity of receptor fluid was maintained by continuously stirring at 700 rpm. The system was thermostatted at 43 ± 1 °C to provide a skin surface temperature of 32 ± 1 °C.
The integrity and permeability of membranes were evaluated with the trans-epidermal water loss (TEWL) value as detailed in Section 2.3.
The finite assay protocol was conducted as described in previous studies. Briefly, 20 µL of each API solution was applied to the skin surface in the donor chamber (n = 3). According to the OECD methodology used, penetration studies were performed for 24 h. After the exposure time, the receptor fluid of all the membranes was collected to transfer to a 5 mL volumetric flask. The remaining API solution was removed from skin surface with specific washing procedure (W). Stratum corneum layers were obtained by tape stripping protocol with adhesive tape (D-Squame, Cuderm Corporation, Dallas, TX, USA) applied under controlled pressure (80 g/cm^2). Viable epidermis (E) and the dermis (D) were separated after heating the skin at 80 °C for several seconds. All samples were extracted with adequate solvent (Table 1) and filtered with a 0.45 µm Nylon filter (Cameo, Sigma-Aldrich, St. Louis, MO, USA) before HPLC quantification (Section 2.6).
The amount permeated in the skin was considered the sum of that in the epidermis, dermis, and receptor fluid. […]

[2] = Kinetic permeation assay with infinite dosage using vertical Franz diffusion cells; assay type: in vitro ADME, pig; conditions: infinite dose 300 µL in propylene glycol (DS 3%, IBU 1%, LIDO 2%, CAF 1% w/v); for Papp / AUC / Cmax: female, white/landrace, pig; for Papp / AUC / Cmax / J (flux) / AUC (%): mean ± SD; for Papp / J (flux): n = 3; for Papp: read-out: Kp (permeability coefficient) (converted); for AUC / Cmax: receptor fluid; for AUC: read-out: AUC (area under the curve); for Cmax: read-out: Cmax (maximum concentration); for Kin. of release (best-fitting kinetic model): up to 30 h; for AUC (%): percentage release
Protocol: as §1
The kinetic diffusion assay was conducted using a Vision Microette (Vision G2 V14.1) with an Autosampler and an Autofill Collector (Hanson Research, Chatworths, CA, USA) automated vertical diffusion cell (7 mL acceptor chamber, and surface area of application of 1.77 cm^2).
The receptor fluid (RF) used was aqueous buffer solution of PBS in the case of DS, IBU, and CAF, and NaH2PO4 (0.05 M, pH = 7) in the case of LIDO. Receptor fluid was continuously stirred with magnetic beads at 700 rpm to keep the contents of the receptor chamber homogenous. The system was thermostatted at 43 ± 1 °C to provide a skin surface temperature of 32 ± 1 °C.
Once TEWL was measured, 300 μL (infinite dose) of the four active solutions was applied in triplicate to each Franz cell (Hanson Research, Chatworths, CA, USA) and donor compartment was sealed to donor chamber to avoid evaporation. Samples (700 µL) were collected at specific times (15 min, 30 min, 1 h, 2 h, 4 h, 6 h, 10 h, 20 h, and 30 h), and automatically passed into the corresponding vial. The same volume of receptor fluid was automatically replaced with fresh solution at each sampling. The content of receptor samples was diluted in 2 mL graduated flasks and filtered with a 0.45 µm nylon filter (Cameo, Sigma-Aldrich, St Louis, MO, USA) previous analyzed with a high-performance liquid chromatography-diode array detector (HPLC-DAD) (Section […]). The kinetics of penetration were determined, simulating the drug elimination in the body.
The cumulative amount of the active pharmaceutical ingredient (API) per surface area (Qn, µg/cm^2) was obtained for each replicate cell to calculate the release of the four APIs. The equation used to determine the cumulative amount of API in the receptor fluid was the following Equation (1):(1) Qn= Cn×Vc+ ∑i=1n−1Ci×Vs/A where Qn is the cumulative amount of API released at time n (μg/cm^2); Cn is the concentration of active ingredient in the sample (μg/mL); Vc is the volume of the vertical diffusion cell; ∑i=1n−1 Ci is the sum of the concentrations of API (µg/mL) determined at sampling intervals 1 through n − 1; Vs is the sample volume and A is the surface area of the sample.
The percentage of cumulative amount of API permeated over time was calculated by the following Equation (2):(2) % Release API= Qn/Total amount of API applied×100
Experimental data of cumulative amount (Qn and % Release API) were plotted versus time or its square root ( t ) to obtain the API absorption and penetration kinetics. Different mathematical model (Zero-order, First-order and Higuchi) were evaluated with the non-linear regression software STATGRAPHICS plus 5 (Statgraphics Technologies, Inc., The Plains, VA, USA). The best-fitting model was selected according to the highest correlation coefficient value (r^2) and it was possible to calculate other parameters, such as flux (J), the permeability coefficient (Kp), lag time (Tl), the maximum concentration (Cmax), the maximum time (tmax), and the area under the curve (AUC).

Structure (SMILES) | % API detected in dermis (D) [1] [%] | % API detected in epidermis (E) [1] [%] | % API detected in receptor fluid (RF) [1] | % API detected in stratum corneum (SC) [1] | % API total permeation (Perm) [1] [%] | Papp [2] [×10⁻⁶ cm/s] | AUC [2] [µg·h/mL] | Cmax [2] [ng/mL] | J (flux) [2] [µg/cm^2/h] | Kin. of release (best-fitting kinetic model) [2] | AUC (%) [2] [%]
Cn1c(=O)c2c(ncn2C)n(C)c1=O [Caffeine, caffeine] | 0.55 ± 0.09 | 0.55 ± 0.23 | 3.62 ± 1.75% | 3.11 ± 2.33% | 4.72 ± 1.87 | 0.0242 | 72.8 ± 32.6 | 13900 ± 1590 | 0.86 ± 0.07 | Ord 0 | 4.55 ± 3.31
O=C(O)Cc1ccccc1Nc1c(Cl)cccc1Cl [Diclofenac sodium] | 1.41 ± 0.49 | 5.54 ± 2.41 | 8.53 ± 3.99% | 8.08 ± 2.62% | 15.49 ± 6.89 | 0.0442 | 168 ± 38.5 | 38100 ± 10000 | 3.94 ± 0.77 | Ord 0 | 15.43 ± 4.41
CC(C)Cc1ccc(C(C)C(=O)O)cc1 (stereo not drawn) [Ibuprofen, ibuprofen] | 2.79 ± 0.37 | 2.92 ± 0.61 | 53% and 52.68 ± 5.01% | 11% and 11.06 ± 1.15% | 58.39 ± 6.32 | 0.0694 | 163 ± 28.3 | 66700 ± 16100 | 2.60 ± 0.69 | Ord 0 | 38.97 ± 4.56
